Data on 30 compounds can be found in US9850225B2, “Compounds useful as immunomodulators” (BRISTOL-MYERS SQUIBB COMPANY, priority 2014, dated 2017).

As usually defined, the IC50 is the concentration that inhibits the measured activity by half.

The assay has as its target PD-1/PD-L1 interaction (PD-1-Ig / PD-L1-His) (Homo sapiens (Human), UniProt Q9NZQ7). The assay can be described thus: PD-1/PD-L1 Homogenous Time-Resolved Fluorescence (HTRF) binding assay. Conditions: PD-1/PD-L1 HTRF binding assay, read-out: Range or IC50. The source says:
The ability of the compounds of formula (I) to bind to PD-L1 was investigated using a PD-1/PD-L1 Homogenous Time-Resolved Fluorescence (HTRF) binding assay.
Homogenous Time-Resolved Fluorescence (HTRF) Binding Assay.
The interaction of PD-1 and PD-L1 can be assessed using soluble, purified preparations of the extracellular domains of the two proteins. The PD-1 and PD-L1 protein extracellular domains were expressed as fusion proteins with detection tags, for PD-1, the tag was the Fc portion of Immunoglobulin (PD-1-Ig) and for PD-L1 it was the 6 histidine motif (PD-L1-His). All binding studies were performed in an HTRF assay buffer consisting of dPBS supplemented with 0.1% […] bovine serum albumin and 0.05% (v/v) Tween-20. For the h/PD-L1-His binding assay, inhibitors were pre-incubated with PD-L1-His (10 nM final) for 15 m in 4 μl of assay buffer, followed by addition of PD-1-Ig (20 nM final) in 1 μl of assay buffer and further incubation for 15 m. HTRF detection was achieved using europium crypate-labeled anti-Ig (1 nM final) and allophycocyanin (APC) labeled anti-His (20 nM final). Antibodies were diluted in HTRF detection buffer and 5 μl was dispensed on top of the binding reaction. […] Additional binding assays were established between the human proteins PD-1-Ig/PD-L2-His (20 & 5 nM, respectively) and CD80-His/PD-L1-Ig (100 & 10 nM, respectively). […]
A general note: TR-FRET usually uses a lanthanide donor and a delayed reading to cut background.

Where two headings read alike, the source gives them in different places.

PD-1/PD-L1 interaction (PD-1-Ig / PD-L1-His), sequence (Q9NZQ7 other isoform, or with tags, fused parts or gaps): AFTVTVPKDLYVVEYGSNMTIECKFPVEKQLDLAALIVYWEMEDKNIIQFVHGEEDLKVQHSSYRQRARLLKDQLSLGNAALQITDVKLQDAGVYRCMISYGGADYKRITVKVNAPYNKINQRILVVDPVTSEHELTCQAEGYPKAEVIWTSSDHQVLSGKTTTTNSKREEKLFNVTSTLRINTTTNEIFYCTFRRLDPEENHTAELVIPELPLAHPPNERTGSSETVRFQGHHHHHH

Consider `Cc1c(COc2ccc(CN[C@@H](CO)CC(=O)O)c(OCc3cccc(C#N)c3)c2)cccc1-c1ccccc1` [Example 1022, (R)-3-((2-((3-cyanobenzyl)oxy)-4-((2-methyl-[1,1′-biphenyl]-3-yl)methoxy)benzyl)amino)-4-hydroxybutanoic acid], for which the IC50 (value given as range class) fell in the range of 0.6 to 10 nM. With `Cc1c(COc2ccc(CN[C@](C)(CO)C(=O)O)c(OCc3cccc(C#N)c3)c2)cccc1-c1ccccc1` [Example 1023, (R)-2-((2-((3-cyanobenzyl)oxy)-4-((2-methyl-[1,1′-biphenyl]-3-yl)methoxy)benzyl)amino)-3-hydroxy-2-methylpropanoic acid], the IC50 (value given as range class) lay within 0.6 to 10 nM.

On to `CC(=O)NCCNCc1ccc(OCc2cccc(-c3ccccc3)c2C)cc1OCc1ccccc1` [Example 1024, N-(2-((2-(benzyloxy)-4-((2-methyl-[1,1′-biphenyl]-3-yl)methoxy)benzyl)amino)ethyl)acetamide], for which the IC50 (value given as range class) lay in the range of 100 to 20000 nM. As for `CC(=O)NCCNCc1ccc(OCc2cccc(-c3ccccc3)c2C)cc1OCc1cccc(C)c1` [Example 1025, N-(2-((4-((2-methyl-[1,1′-biphenyl]-3-yl)methoxy)-2-((3-methylbenzyl)oxy)benzyl)amino)ethyl)acetamide], for the setting “value given as range class”, the IC50 lay in the range of 100 to 20000 nM.

For the compound `CC(=O)NCCNCc1ccc(OCc2cccc(-c3ccccc3)c2C)cc1OCC(F)(F)F` [Example 1026, N-(2-((4-((2-methyl-[1,1′-biphenyl]-3-yl)methoxy)-2-(2,2,2-trifluoroethoxy)benzyl)amino)ethyl)acetamide], for the setting “value given as range class”, the IC50 was 100 to 20000 nM.

For the compound `CCCOc1cc(OCc2cccc(-c3ccccc3)c2C)ccc1CNCCNC(C)=O` [Example 1027, N-(2-((4-((2-methyl-[1,1′-biphenyl]-3-yl)methoxy)-2-propoxybenzyl)amino)ethyl)acetamide], for the setting “value given as range class”, the half-maximal inhibitory concentration (IC50) is 100 to 20000 nM. On the same count and under the same terms, the value for `CC(=O)NCCNCc1ccc(OCc2cccc(-c3ccccc3)c2C)cc1OCc1cccc(C#N)c1` [Example 1028, N-(2-((2-((3-cyanobenzyl)oxy)-4-((2-methyl-[1,1′-biphenyl]-3-yl)methoxy)benzyl)amino)ethyl)acetamide] was 10 to 100 nM; that for `CC(=O)NCCNCc1ccc(OCc2cccc(-c3ccccc3)c2C)cc1OCc1ccc(C#N)cc1` [Example 1029, N-(2-((2-((4-cyanobenzyl)oxy)-4-((2-methyl-[1,1′-biphenyl]-3-yl)methoxy)benzyl)amino)ethyl)acetamide] was 100 to 20000 nM. Regarding `CC(=O)NCCNCc1ccc(OCc2cccc(-c3ccccc3)c2C)cc1OCCO` [Example 1030, N-(2-((2-(2-hydroxyethoxy)-4-((2-methyl-[1,1′-biphenyl]-3-yl)methoxy)benzyl)amino)ethyl)acetamide], where the note is “value given as range class”, the IC50 is 100 to 20000 nM.

For the compound `CC(=O)NCCNCc1ccc(OCc2cccc(-c3ccccc3)c2C)cc1OCC(N)=O` [Example 1031, 2-(2-(((2-acetamidoethyl)amino)methyl)-5-((2-methyl-[1,1′-biphenyl]-3-yl)methoxy)phenoxy)acetamide], the IC50 (value given as range class) fell in the range of 100 to 20000 nM. The same measure, in the same setting: as for `COC(=O)CCCCOc1cc(OCc2cccc(-c3ccccc3)c2C)ccc1CNCCNC(C)=O` [Example 1032, methyl 5-(2-(((2-acetamidoethyl)amino)methyl)-5-((2-methyl-[1,1′-biphenyl]-3-yl)methoxy)phenoxy)pentanoate], the figure is 100 to 20000 nM; as for `CC(=O)NCCNCc1ccc(OCc2cccc(-c3ccccc3)c2C)cc1OCCc1ccccc1` [Example 1033, N-(2-((4-((2-methyl-[1,1′-biphenyl]-3-yl)methoxy)-2-phenethoxybenzyl)amino)ethyl)acetamide], 100 to 20000 nM.

As for `COC(=O)c1cccc(COc2cc(OCc3cccc(-c4ccccc4)c3C)ccc2CNCCNC(C)=O)c1` [Example 1034, methyl 3-((2-(((2-acetamidoethyl)amino)methyl)-5-((2-methyl-[1,1′-biphenyl]-3-yl)methoxy)phenoxy)methyl)benzoate], for the setting “value given as range class”, the IC50 was in the range of 100 to 20000 nM. As for `CC(=O)NCCNCc1ccc(OCc2cccc(-c3ccccc3)c2C)cc1OCCCO` [Example 1035, N-(2-((2-(3-hydroxypropoxy)-4-((2-methyl-[1,1′-biphenyl]-3-yl)methoxy)benzyl)amino)ethyl)acetamide], the IC50 (value given as range class) was 100 to 20000 nM. Same read-out and setting: the value for `COC(=O)CCCOc1cc(OCc2cccc(-c3ccccc3)c2C)ccc1CNCCNC(C)=O` [Example 1036, methyl 4-(2-(((2-acetamidoethyl)amino)methyl)-5-((2-methyl-[1,1′-biphenyl]-3-yl)methoxy)phenoxy)butanoate] was 100 to 20000 nM. The same measure, in the same setting: as for `CC(=O)NCCNCc1ccc(OCc2cccc(-c3ccccc3)c2C)cc1OCc1cccc(CO)c1` [Example 1037, N-(2-((2-((3-(hydroxymethyl)benzyl)oxy)-4-((2-methyl-[1,1′-biphenyl]-3-yl)methoxy)benzyl)amino)ethyl)acetamide], the figure is 100 to 20000 nM. On to `CC(=O)NCCNCc1ccc(OCc2cccc(-c3ccccc3)c2C)cc1OCc1ccccc1CO` [Example 1038, N-(2-((2-((2-(hydroxymethyl)benzyl)oxy)-4-((2-methyl-[1,1′-biphenyl]-3-yl)methoxy)benzyl)amino)ethyl)acetamide], for which the IC50 (value given as range class) lay within 100 to 20000 nM.

As to `CC(=O)NCCNCc1ccc(OCc2cccc(-c3ccccc3)c2C)cc1OCc1ccc(C(N)=O)cc1` [Example 1039], the IC50 (value given as range class) lay within 100 to 20000 nM.

Take `CC(=O)NCCNCc1ccc(OCc2cccc(-c3ccccc3)c2C)cc1OCc1ccc(C(C)=O)cc1` [Example 1040, N-(2-((2-((4-acetylbenzyl)oxy)-4-((2-methyl-[1,1′-biphenyl]-3-yl)methoxy)benzyl)amino)ethyl)acetamide]: where the note is “value given as range class”, the IC50 was in the range of 100 to 20000 nM. The same measure, in the same setting: as for `CC(=O)NCCNCc1ccc(OCc2cccc(-c3ccccc3)c2C)cc1OCc1ccccc1S(C)(=O)=O` [Example 1041, N-(2-((4-((2-methyl-[1,1′-biphenyl]-3-yl)methoxy)-2-((2-(methylsulfonyl)benzyl)oxy)benzyl)amino)ethyl)acetamide], the figure is 100 to 20000 nM; as for `COCCCOc1cc(OCc2cccc(-c3ccccc3)c2C)ccc1CNCCNC(C)=O` [Example 1042, N-(2-((2-(3-methoxypropoxy)-4-((2-methyl-[1,1′-biphenyl]-3-yl)methoxy)benzyl)amino)ethyl)acetamide], 100 to 20000 nM.

With `CC(=O)NCCNCc1ccc(OCc2cccc(-c3ccccc3)c2C)cc1OCc1ccc(C(=O)O)cc1` [Example 1043, 4-((2-(((2-acetamidoethyl)amino)methyl)-5-((2-methyl-[1,1′-biphenyl]-3-yl)methoxy)phenoxy)methyl)benzoic acid], the IC50 (numeric value) turned out to be 239 nM. On to `CCOc1cc(OCc2cccc(-c3ccccc3)c2C)ccc1CNCCNC(C)=O` [Example 1044, N-(2-((2-ethoxy-4-((2-methyl-[1,1′-biphenyl]-3-yl)methoxy)benzyl)amino)ethyl)acetamide], for which, for the setting “value given as range class”, the IC50 was 100 to 20000 nM. On the same count and under the same terms, the value for `CC(=O)NCCNCc1ccc(OCc2cccc(-c3ccccc3)c2C)cc1OCc1ccccc1C` [Example 1045, N-(2-((4-((2-methyl-[1,1′-biphenyl]-3-yl)methoxy)-2-((2-methylbenzyl)oxy)benzyl)amino)ethyl)acetamide] was 100 to 20000 nM; that for `CC(=O)NCCNCc1ccc(OCc2cccc(-c3ccccc3)c2C)cc1OCc1ccc(C(C)(C)C)cc1` [Example 1046, N-(2-((2-((4-(tert-butyl)benzyl)oxy)-4-((2-methyl-[1,1′-biphenyl]-3-yl)methoxy)benzyl)amino)ethyl)acetamide] was 100 to 20000 nM.

`CC(=O)NCCNCc1ccc(OCc2cccc(-c3ccccc3)c2C)cc1OCc1ccc(C)cc1` [Example 1047, N-(2-((4-((2-methyl-[1,1′-biphenyl]-3-yl)methoxy)-2-((4-methylbenzyl)oxy)benzyl)amino)ethyl)acetamide]: the IC50 (value given as range class) lay in the range of 100 to 20000 nM. Take `CC(=O)NCCNCc1ccc(OCc2cccc(-c3ccccc3)c2C)cc1OCc1ccccc1F` [Example 1048, N-(2-((2-((2-fluorobenzyl)oxy)-4-((2-methyl-[1,1′-biphenyl]-3-yl)methoxy)benzyl)amino)ethyl)acetamide]: the 50% inhibitory concentration (IC50) (value given as range class) was in the range of 100 to 20000 nM. Still for that read-out and setting: as for `CC(=O)NCCNCc1ccc(OCc2cccc(-c3ccccc3)c2C)cc1OCc1c(F)cccc1F` [Example 1049, N-(2-((2-((2,6-difluorobenzyl)oxy)-4-((2-methyl-[1,1′-biphenyl]-3-yl)methoxy)benzyl)amino)ethyl)acetamide], the figure is 100 to 20000 nM. The same measure, in the same setting: the value for `CC(=O)NCCNCc1ccc(OCc2cccc(-c3ccccc3)c2C)cc1OCc1cccc(F)c1` [Example 1050, N-(2-((2-((3-fluorobenzyl)oxy)-4-((2-methyl-[1,1′-biphenyl]-3-yl)methoxy)benzyl)amino)ethyl)acetamide] was 100 to 20000 nM; that for `CC(=O)NCCNCc1ccc(OCc2cccc(-c3ccccc3)c2C)cc1OCc1cccc(C(F)(F)F)c1` [Example 1051, N-(2-((4-((2-methyl-[1,1′-biphenyl]-3-yl)methoxy)-2-((3-(trifluoromethyl)benzyl)oxy)benzyl)amino)ethyl)acetamide] was 100 to 20000 nM.
